Source: paper PMC8453936, “Development and in vitro Profiling of Dual FXR/LTA4H Modulators” (Chemmedchem, 2021)
pIC50, pKd: −log10 of the molar value.

Experiments:
[1] = tested on: related nuclear receptors (RAR, PPAR, LXR, VDR, CAR, RXR); assay: Gal4 hybrid reporter gene assays, selectivity over related nuclear receptors (HEK293T); format: cell-based, human; conditions: heatmap of mean relative activation, n=2
From the text: Isothermal titration calorimetry (ITC) confirmed binding of 8 and 19 to the recombinant proteins of both FXR LBD and LTA4H (Figure 1).
Figure 2 (a) Selectivity profiles of 8 and 19 over related nuclear receptors. […] (b) Activity of 8 and 19 in a WST‐1 cell viability assay in HepG2 cells. Data are mean±S.E.M., n=4. […] Data are mean±S.E.M. relative FXR activation (%), n≥3. […] Data are mean±S.E.M. relative LTA4H inhibition (%), n=3.
Hybrid reporter gene assays. Nuclear receptor modulation was determined in hybrid reporter gene assays using the Gal4‐fusion receptor plasmids pFA‐CMV‐hPPARα‐LBD,[39] pFA‐CMV‐hPPARγLBD,[39] pFA‐CMV‐hPPARδ‐LBD,[39] pFA‐CMV‐hLXRα‐LBD,[40] pFACMV‐hLXRβ‐LBD,[40] pFA‐CMV‐hRXRα‐LBD,[41] pFA‐CMV‐hRARα‐LBD,[41] pFA‐CMV‐hVDR‐LBD[41] and pFA‐CMV‐hCAR‐LBD[41] coding for the hinge region and ligand binding domain (LBD) of the canonical isoform of the respective nuclear receptor, pFR‐Luc (Stratagene) as reporter plasmid and pRL‐SV40 (Promega) for normalization of transfection eﬃciency. HEK293T cells were grown in DMEM high glucose, supplemented with 10 % FCS, sodium pyruvate (1 mM), penicillin (100 U/mL), and streptomycin (100 μg/mL) at 37 °C and 5 % CO2, and seeded in 96‐well plates (2.5 ⋅ 10^4 cells/well) the day before transfection. […] Luminescence was measured with an Infinite M200 luminometer (Tecan Deutschland GmbH, Germany). […]

recombinant human sEH = target: T1, recombinant human sEH (Homo sapiens, UniProt P34913); assay: sEH activity assay with PHOME as fluorogenic substrate; format: biochemical; conditions: mean±S.E.M., n=3
T1 construct: Human sEH full length protein was purified as described by Lukin et al; made in house; host or cells: E. coli BL21 (DE3)
T1 sequence (P34913 1-555): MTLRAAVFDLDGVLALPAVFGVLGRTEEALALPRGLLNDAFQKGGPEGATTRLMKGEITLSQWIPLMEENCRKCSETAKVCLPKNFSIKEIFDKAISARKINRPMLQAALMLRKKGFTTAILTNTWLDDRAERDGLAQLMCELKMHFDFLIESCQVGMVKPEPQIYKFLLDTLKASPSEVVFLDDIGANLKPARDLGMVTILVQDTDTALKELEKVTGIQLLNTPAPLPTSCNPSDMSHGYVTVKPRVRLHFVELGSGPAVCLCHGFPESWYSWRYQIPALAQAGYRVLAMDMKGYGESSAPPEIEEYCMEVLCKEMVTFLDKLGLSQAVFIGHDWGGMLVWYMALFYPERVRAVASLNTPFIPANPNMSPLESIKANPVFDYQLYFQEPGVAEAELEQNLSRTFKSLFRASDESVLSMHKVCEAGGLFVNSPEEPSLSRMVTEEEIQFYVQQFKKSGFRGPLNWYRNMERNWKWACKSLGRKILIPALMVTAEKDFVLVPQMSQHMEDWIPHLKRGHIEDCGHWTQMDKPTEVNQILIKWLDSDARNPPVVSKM

[2] = target: T2, recombinant human FXR LBD (Homo sapiens, UniProt Q96RI1); assay: Isothermal titration calorimetry on FXR LBD; conditions: ITC, 25 °C, 1:1 binding assumed
T2 construct: Recombinant FXR LBD for ITC experiments was obtained; His6-tag (TEV-cleavable) (cleaved yes); made in house; host or cells: E. coli BL21 (DE3)
T2 sequence (Q96RI1 262-486 limits assumed): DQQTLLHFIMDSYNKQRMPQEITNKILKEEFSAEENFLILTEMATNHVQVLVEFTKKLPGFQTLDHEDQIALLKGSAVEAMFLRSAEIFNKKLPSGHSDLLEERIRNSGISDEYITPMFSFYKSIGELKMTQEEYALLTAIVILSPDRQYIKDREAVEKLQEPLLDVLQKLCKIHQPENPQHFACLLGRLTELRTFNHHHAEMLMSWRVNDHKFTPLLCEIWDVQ

HepG2 cells = assay: WST-1 cell viability assay; format: cell-based; conditions: up to 100 μM, 48 h

selectivity over related nuclear receptors [1] | pIC50 (recombinant human sEH; read-out: sEH inhibition IC50) | pKd [2] | sEH inhibition (recombinant human sEH; at 100 μM) [% inhibition at 100 μM] | Structure (SMILES) | cytotoxic / anti-proliferative effect in WST-1 assay (HepG2 cells)
favorable selectivity | 4.17 | ~5.52 | – | O=C(O)c1ccnc(NC(=O)c2ccc(OCCCc3ccccc3)cc2)c1 [compound 19, 2‐(4‐(3‐Phenylpropoxy)benzamido)isonicotinic acid] | no cytotoxic effects
favorable selectivity | – | ~5.15 | 6±1 | O=C(O)c1cccc(NC(=O)c2ccc(OCCCc3ccccc3)cc2)c1 [compound 8] | slight anti‐proliferative activity at high concentration
